Experimental data published in patent US20240360179A1, “STAPLED PEPTIDES AND METHODS THEREOF” (FOG PHARMACEUTICALS, INC., priority 2021, published 2024).
pIC50: −log10 of the molar value.

Molecular target: T1, full-length B-Catenin (Uniprot ID P35222) (Homo sapiens, UniProt P35222)
T1 construct: 10 nM full-length B-Catenin (Uniprot ID P35222)
T1 sequence (P35222 1-781): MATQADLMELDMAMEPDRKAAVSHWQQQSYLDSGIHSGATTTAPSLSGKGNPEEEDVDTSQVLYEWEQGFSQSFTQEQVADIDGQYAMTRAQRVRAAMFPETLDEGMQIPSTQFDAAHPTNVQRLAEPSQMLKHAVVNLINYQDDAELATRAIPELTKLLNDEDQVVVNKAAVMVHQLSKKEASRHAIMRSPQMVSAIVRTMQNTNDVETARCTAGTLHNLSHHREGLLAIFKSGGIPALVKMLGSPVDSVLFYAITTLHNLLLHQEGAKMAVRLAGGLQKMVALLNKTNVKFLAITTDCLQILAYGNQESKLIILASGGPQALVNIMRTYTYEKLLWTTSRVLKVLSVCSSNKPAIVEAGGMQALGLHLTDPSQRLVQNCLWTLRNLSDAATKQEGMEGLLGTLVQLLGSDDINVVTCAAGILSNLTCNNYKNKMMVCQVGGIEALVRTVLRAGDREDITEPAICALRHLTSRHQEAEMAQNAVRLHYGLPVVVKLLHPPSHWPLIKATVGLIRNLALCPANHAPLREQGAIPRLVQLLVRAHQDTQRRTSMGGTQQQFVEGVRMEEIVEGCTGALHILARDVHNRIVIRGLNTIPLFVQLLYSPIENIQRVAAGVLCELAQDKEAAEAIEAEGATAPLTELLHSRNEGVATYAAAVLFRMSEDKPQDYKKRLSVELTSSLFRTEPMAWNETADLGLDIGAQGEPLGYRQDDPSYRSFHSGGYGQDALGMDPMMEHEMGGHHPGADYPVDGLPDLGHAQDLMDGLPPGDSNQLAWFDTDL
Experiment: not given
Assay type: binding
Settings: competition fluorescence polarization; read-out: beta-Catenin FP IC50

Substance | pIC50
4pentenyl-MePro-Asp-B5-Ala-Asp-3COOHF-Ala-Ala-Phe-PyrS2-Lys*3-3Thi-BztA-Ala-GlnR*3-NH2 [I-932] | < 6.00
4pentenyl-ThioPro-Asp-B5-Ala-Asp-3COOHF-Ala-Ala-Phe-PyrS2-Lys*3-3Thi-BztA-Ala-GlnR*3-NH2 [I-933] | < 6.00
4pentenyl-MePro-Asp-B5-Ala-Asp-3COOHF-Ala-Ala-Phe-PyrS2-Lys*3-3Thi-BztA-Ala-GlnR*3-NH2 [I-993] | 6.00 to 6.12

Same assay, conditions: read-out: beta-Catenin FP IC50

Substance | pIC50
Ac-PL3-Asp-Leu-B5-Asp-3COOHF-Ala-Ala-Phe-dLys*3-PyrS2-3Thi-BztA-GlnR*3-NH2 [I-10] | > 7.30
Ac-PL3-Asp-Npg-B5-Asp-3COOHF-Aib-Ala-Phe-Lys*3-PyrS2-3Thi-BztA-GlnR*3-Leu-Glu-Ala-NH2 [I-495] | > 7.30
Ac-PL3-Asp-Npg-B5-Asp-3COOHF-Aib-Ala-nLeu-Lys*3-PyrS2-Phe-34ClF-GlnR*3-Ala-NH2 [I-480] | > 7.30
Ac-PL3-Asp-Npg-B5-Asp-3COOHF-Aib-Ala-Phe-Lys*3-PyrS2-3Thi-BztA-GlnR*3-dLeu-Ser-Leu-NH2 [I-468] | > 7.30
Ac-PL3-Asp-Npg-B5-Asp-3COOHF-Aib-Ala-Phe-Lys*3-PyrS2-Phe-2NapA-GlnR*3-Ala-NH2 [I-484] | > 7.30
Ac-PL3-Asp-Npg-B5-Asp-3COOHF-Aib-Ala-Phe-Lys*3-PyrS2-3Thi-BztA-GlnR*3-Thr-Aib-NH2 [I-412] | > 7.30
Ac-PL3-Asp-Npg-B5-Asp-3COOHF-Aib-Ala-Phe-Lys*3-PyrS2-3Thi-BztA-GlnR*3-Leu-aThr-Ala-NH2 [I-501] | > 7.30
Ac-PL3-Asp-Npg-B5-Asp-3COOHF-Aib-Ala-Phe-Lys*3-PyrS2-3Thi-BztA-GlnR*3-Val-Aib-NH2 [I-408] | > 7.30
Ac-PL3-Asp-Leu-B5-Asp-3COOHF-Ala-Ala-Phe-Lys*3-PyrS2-3Thi-BztA-GlnR*3-NH2 [I-12] | > 7.30
Ac-PL3-Asp-Cha-B5-Asp-3COOHF-Ala-Ala-Phe-Lys*3-PyrS2-2F3MeF-BztA-GlnR*3-Ala-NH2 [I-98] | > 7.30
Ac-PL3-Asp-Npg-B5-Asp-3COOHF-aMeDF-Ala-Phe-Lys*3-PyrS2-3Thi-BztA-GlnR*3-Ala-NH2 [I-457] | > 7.30
Ac-PL3-Asp-Leu-B5-Asp-3COOHF-Ala-Ala-Phe-GlnR*3-PyrS2-3Thi-BztA-Lys*3-NH2 [I-16] | > 7.30
Ac-PL3-Asp-Npg-B5-Asp-3COOHF-Aib-Ala-Phe-Lys*3-PyrS2-Phe-BztA-GlnR*3-Ala-NH2 [I-280] | > 7.30
Ac-PL3-Asp-Npg-B5-Asp-3COOHF-Acp-Ala-Phe-Lys*3-PyrS2-3Thi-BztA-GlnR*3-Ala-NH2 [I-385] | > 7.30
Ac-PL3-Asp-Npg-B5-Asp-3COOHF-Aib-Ala-Phe-TriAzLys*3-PyrS2-Phe-BztA-sAbu*3-Ala-NH2 [I-420] | > 7.30
Ac-PL3-Asp-Npg-B5-Asp-3COOHF-Cha-Ala-Phe-Lys*3-PyrS2-2F3MeF-BztA-GlnR*3-Ala-NH2 [I-102] | > 7.30
Ac-PL3-Asp-Npg-B5-Asp-3COOHF-Aib-Ala-Phe-Lys*3-PyrS2-3Thi-BztA-GlnR*3-Leu-Ser-Ala-NH2 [I-497] | > 7.30
Ac-PL3-Asp-Npg-B5-Asp-3COOHF-CyLeu-Ala-Phe-Lys*3-PyrS2-3Thi-BztA-GlnR*3-Ala-NH2 [I-383] | > 7.30
Ac-PL3-Asp-Npg-B5-Asp-3COOHF-DaMeS-Ala-Phe-Lys*3-PyrS2-3Thi-BztA-GlnR*3-Ala-NH2 [I-437] | > 7.30
Ac-PL3-Asp-Npg-B5-Asp-3COOHF-Aib-Ala-Phe-Lys*3-PyrS2-3Thi-BztA-GlnR*3-dAla-Ser-NH2 [I-461] | > 7.30
Ac-PL3-Asp-Npg-B5-Asp-3COOHF-Aib-Ala-Phe-Lys*3-PyrS2-nLeu-BztA-GlnR*3-Ala-NH2 [I-272] | > 7.30
Ac-PL3-Asp-Npg-B5-Asp-3COOHF-Aib-Ala-Phe-Lys*3-PyrS2-3Thi-BztA-GlnR*3-Leu-Thr-Ala-NH2 [I-499] | > 7.30

Same assay, conditions: read-out: beta-catenin TCF4 competition FP assay IC50

Substance | pIC50
Ac-PL3-Asp-Npg-B5-Asp-3COOHF-Aib-Ala-Phe-[pXyl]Cys-PyrS2-2F3MeF-BztA-Cys-Ala-NH2 [I-377] | 7.03
Ac-PL3-Asp-Npg-B5-Asp-3COOHF-Aib-Ala-Phe-[oXyl]Cys-PyrS2-2F3MeF-BztA-Cys-Ala-NH2 [I-376] | 6.66

Test system: COLO320DM cells
Experiment: COLO320DM proliferation assay (CellTiter-Glo)
Assay type: cell-based, human
Settings: read-out: COLO320DM Proliferation Abs IC50
In short: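 COLO320DM cells, 250 cells/well in RPMI-1640 with 4% FBS, attached 18-22 h, then exposed 96 h at 37 °C, 5% CO2 to 7-point 1/2 dilutions from 20 uM to 313 nM. Viability by CellTiter-Glo luminescence; IC50 derived from the dose curve.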

Substance | pIC50
Ac-PL3-Asp-Npg-B5-Asp-3COOHF-Aib-Ala-Phe-Lys*3-PyrS2-hCha-34ClF-GlnR*3-Val-Glu-Ala-NH2 [I-1350] | ≥ 5.00
Ac-PL3-Asp-DipA-B5-Asp-3COOHF-Ala-Ala-Phe-Lys*3-PyrS2-3Thi-34ClF-GlnR*3-Ala-Ala-[C18-PEG8]-Lys-NH2-NH2 [I-1792] | ≥ 5.00
Ac-PL3-Asp-DipA-B5-Asp-3COOHF-CyLeu-Ala-Phe-Lys*3-PyrS2-2F3MeF-BztA-GlnR*3-Leu-NH2 [I-1770] | ≥ 5.00
Ac-PL3-Asp-Ile-B5-Asp-3COOHF-Aib-Ala-Phe-GlnR*3-PyrS2-Phe-34ClF-AsnEDA*3-NH2 [I-1376] | ≥ 5.00
Ac-PL3-Asp-Chg-B5-Asp-3COOHF-Aib-Ala-Phe-Lys*3-PyrS2-2ClF-34ClF-GlnR*3-NH2 [I-1505] | ≥ 5.00
Ac-PL3-Asp-Npg-B5-Asp-3COOHF-Aib-Ala-Phe-Lys*3-PyrS2-3Thi-BztA-GlnR*3-Ala-Lys-Leu-Pro-Val-nLeu-NH2 [I-814] | ≥ 5.00
Ac-PL3-Asp-Npg-B5-Asp-3COOHF-Aib-Ala-Phe-Lys*3-PyrS2-2NH2F-BztA-GlnR*3-Ala-NH2 [I-1736] | ≥ 5.00
Ac-PL3-Asp-DipA-B5-Asp-3COOHF-Ala-Ala-Phe-Lys*3-PyrS2-3Thi-34ClF-GlnR*3-Ala-Ala-[C18-dPEG2]-Lys-NH2-NH2 [I-1791] | ≥ 5.00
Ac-PL3-Asp-DipA-B5-Asp-3COOHF-Ala-Ala-Phe-Lys*3-PyrS2-3Thi-34ClF-GlnR*3-[mPEG8]-Lys-NH2 [I-1701] | ≥ 5.00
Ac-PL3-Asp-Ile-B5-Asp-3COOHF-CyLeu-Ala-Phe-Lys*3-PyrS2-3Thi-34ClF-GlnR*3-NH2 [I-1040] | ≥ 5.00
Ac-PL3-Asp-DipA-B5-Asp-3COOHF-Ala-Ala-Phe-Lys*3-PyrS2-3Thi-BztA-GlnR*3-Ala-NH2 [I-982] | ≥ 5.00
Ac-PL3-Asp-Ile-B5-Asp-3COOHF-Aib-Ala-Phe-GlnR*3-PyrS2-Phe-34ClF-1MeK*3-NH2 [I-1370] | ≥ 5.00
Ac-PL3-Asp-Npg-B5-3COOHF-Asp-Aib-Ala-Phe-Lys*3-PyrS2-3Thi-BztA-GlnR*3-Ala-NH2 [I-742] | < 4.70
Ac-PL3-Asp-Ile-B5-Asp-3COOHF-CyLeu-Ala-Phe-Lys*3-PyrS2-3Thi-34ClF-GlnR*3-Val-Thr-Ala-NH2 [I-1268] | ≥ 5.00
Ac-PL3-Asp-Npg-B5-Asp-3COOHF-Aib-Ala-Phe-Lys*3-PyrS2-3Thi-34ClF-GlnR*3-NH2 [I-867] | ≥ 5.00
Ac-PL3-Asp-Npg-B5-Asp-3COOHF-Aib-Ala-Phe-Lys*3-PyrS2-2FF-34ClF-GlnR*3-NH2 [I-1537] | ≥ 5.00
Ac-PL3-Asp-Npg-B5-Asp-3COOHF-Aib-Ala-Phe-Lys*3-PyrS2-[4PyPrpc]2NH2F-BztA-GlnR*3-Ala-NH2 [I-1743] | 4.70 to 5.00
Ac-PL3-Asp-Npg-B5-Asp-3COOHF-Aib-Ala-Phe-Lys*3-PyrS2-Phe-34MeF-GlnR*3-NH2 [I-1103] | ≥ 5.00
Ac-PL3-Asp-Ile-B5-Asp-3COOHF-Ala-Ala-Phe-TriAzLys*3-PyrS2-Phe-34ClF-sCH2S*3-NH2 [I-1865] | ≥ 5.00
